Residues, ends and D or L forms follow the SMILES beside them.
Key:
[1] = molecular target: T1, Glutamate carboxypeptidase II (GCPII) (Homo sapiens, UniProt Q04609); assay: LC/MS/MS measurement of Glu from GCPII cleavage of ([…]5 […]-labelled) NAAG; format: biochemical
T1 construct: gene FOLH1

[2] = molecular target: T1, Glutamate carboxypeptidase II (GCPII); assay: LC/MS/MS enzymatic assay of Glu released from NAAG by purchased GCPII, 11-point IC50; format: biochemical

T1 sequence (Q04609 whole entry): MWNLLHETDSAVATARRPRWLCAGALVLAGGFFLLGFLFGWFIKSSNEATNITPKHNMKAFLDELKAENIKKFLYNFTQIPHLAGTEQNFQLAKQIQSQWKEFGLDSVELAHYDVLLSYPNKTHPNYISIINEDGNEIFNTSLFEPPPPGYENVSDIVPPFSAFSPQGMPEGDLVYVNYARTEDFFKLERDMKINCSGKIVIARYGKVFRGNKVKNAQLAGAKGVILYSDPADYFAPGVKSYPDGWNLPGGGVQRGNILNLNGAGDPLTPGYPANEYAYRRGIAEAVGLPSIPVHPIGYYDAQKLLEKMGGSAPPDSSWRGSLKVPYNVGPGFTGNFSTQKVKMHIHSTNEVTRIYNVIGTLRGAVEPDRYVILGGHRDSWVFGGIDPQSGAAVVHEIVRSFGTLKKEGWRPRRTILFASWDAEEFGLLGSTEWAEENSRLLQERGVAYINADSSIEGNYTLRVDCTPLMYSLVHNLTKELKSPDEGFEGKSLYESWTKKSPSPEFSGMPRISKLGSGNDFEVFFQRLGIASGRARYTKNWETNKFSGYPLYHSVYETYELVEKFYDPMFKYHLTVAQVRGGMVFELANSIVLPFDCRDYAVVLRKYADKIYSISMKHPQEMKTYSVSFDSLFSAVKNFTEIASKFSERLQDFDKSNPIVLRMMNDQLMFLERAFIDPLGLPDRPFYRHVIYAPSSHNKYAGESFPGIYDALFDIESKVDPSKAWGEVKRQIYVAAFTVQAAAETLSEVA

Row | SMILES | LC/MS/MS measurement of Glu from GCPII cleavage of (13C5 15N-labelled) NAAG [1] | IC50 [2] [µM]
1 | CC(=O)N[C@@H](CC(=O)O)C(=O)N[C@@H](CCC(=O)O)C(=O)O [NAAG] (Ac-Asp-Glu-OH) | LC/MS/MS) method to directly measure Glu resulting from in vitro GCPII cleavage of NAAG | 
2 | N[C@@H](Cn1oc(=O)[nH]c1=O)C(=O)O [quisqualic acid] |  | 1.59

Source: article PMC11737842, “Development of a high‐throughput dual‐stream liquid chromatography–tandem mass spectrometry method to screen for inhibitors of glutamate carboxypeptidase II” (Rapid Communications in Mass Spectrometry, 2024)
